# Where no end group is shown, it is not given here.
# Legend:
# [1] = molecular target: T1, SR-B1 (Homo sapiens, UniProt Q8WTV0); experiment: Immunofluorescence localisation of U1 RNA with SR-B1; type: cell-based; settings: NHEKs, 4 °C, 10 minutes with U1 RNA and peptide
# T1 construct: endogenous in cells; host or cells: NHEK (primary neonatal human epidermal keratinocytes)
# T1 sequence (Q8WTV0 1-509 isoform Q8WTV0-2): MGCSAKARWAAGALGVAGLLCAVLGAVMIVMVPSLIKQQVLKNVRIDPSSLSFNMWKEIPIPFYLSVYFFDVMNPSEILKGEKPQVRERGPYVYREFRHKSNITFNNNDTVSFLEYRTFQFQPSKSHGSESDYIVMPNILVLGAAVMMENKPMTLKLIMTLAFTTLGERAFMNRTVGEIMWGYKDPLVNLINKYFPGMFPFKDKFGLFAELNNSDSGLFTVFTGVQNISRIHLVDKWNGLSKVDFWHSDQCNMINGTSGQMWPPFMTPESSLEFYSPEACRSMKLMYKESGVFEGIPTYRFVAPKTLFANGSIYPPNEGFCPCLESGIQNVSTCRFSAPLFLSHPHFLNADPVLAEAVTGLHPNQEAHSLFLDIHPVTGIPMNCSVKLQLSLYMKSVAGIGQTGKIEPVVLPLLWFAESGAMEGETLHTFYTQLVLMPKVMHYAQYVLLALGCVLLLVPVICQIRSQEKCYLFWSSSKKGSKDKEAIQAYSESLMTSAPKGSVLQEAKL
# Procedure: NHEKs were grown on 8-well chamber slides (Thermofisher Scientific). After indicated treatments, cells were fixed in 4% paraformaldehyde (PFA) (Thermofisher Scientific) for 10 minutes and blocked with 3% bovine serum albumin, 0.2 M Glycine (Sigma) with or without 1 mg/mL saponin (Sigma) prior to incubating with primary antibodies followed by appropriate 488- or 568-coupled secondary antibodies, or 488-streptavidin conjugate. Nuclei were counterstained with DAPI. All images were taken with an Olympus BX41 microscope (widefield), Zeiss LSM510 confocal microscope, or Nikon A1R Confocal STORM microscope as indicated.
# Figure S3. a) NHEKs cultured at 4 °C for 10 minutes with U1 RNA and cathelicidin peptide. […]
# RNA. NHEKs were cultured with various cathelicidin peptides (2.5 µM) for 10 minutes, then with biotinylated U1 RNA (2.5 µg/mL) at 4 °C for 1 hour before physical proximity of SR-A6 and U1 RNA was determined using a fluorescence-based PLA that produces a red fluorescent signal. […] PMA-treated THP1 were cultured with various cathelicidin peptides (3 µM) for 10 minutes, then with biotinylated U1 RNA (2.5 µg/mL) at 4 °C for 1 hour before physical proximity of U1 RNA and scavenger receptors was determined using a fluorescence-based PLA, each count is PLA complexes observed in 5 visual fields. f) NHEKs cultured at 37 °C that were stained immediately after or after 5 […]
# [2] = system: THP1 cells; experiment: Cytokine expression in PMA-treated THP1 cells stimulated with cathelicidin peptide and U1 RNA; type: cell-based, human; settings: PMA-treated THP1, peptide 3 μM 10 minutes, then U1 RNA 12.5 μg/mL overnight; n = 3
# Procedure: Figure 1 Inflammatory activity of cathelicidin can be dissociated from antimicrobial function (a) Transcriptomic analysis by RNASeq of primary cultures of normal human epidermal keratinocytes (NHEKs) treated with LL37 (2.5 μM) with or without U1 RNA (2.5 μg/mL) for 24 hours. Shown are gene sets induced > 2 fold over vehicle, and after treatment with LL37, U1 RNA, or the combination of LL37 + U1 RNA. (b) Gene Ontology analysis of gene sets from (a). The number of genes related to each biological process is indicated in parentheses. (c) Amino acid sequence of synthetic cathelicidin peptides used in this study. (d) Antimicrobial assay of cathelicidin peptides against group A streptococcus (GAS). GAS were incubated with various concentrations of each peptide (0–25 μM) for 6 hours, then surviving colonies counted after plating on Todd Hewitt Broth gel. (e) IFN-β1 mRNA abundance and (f) IL-6 mRNA abundance in NHEKs after treatment with cathelicidin peptides (2.5 μM) for 10 minutes, then stimulated with U1 RNA (2.5 μg/mL) for a further 6 hours. (n = 3). (g) IFN-β1 mRNA abundance and (h) IL-6 mRNA abundance in […] (PMA)-treated THP1 cells after treatment with cathelicidin peptides (3 μM) for 10 minutes, then stimulated with U1 RNA (12.5 μg/mL) overnight. (n = 3). Data presented are from one representative experiment of at least two independent experiments. Error bars are SEM of three biological replicates. *P < 0.05, **P < 0.01, ***P < 0.001 by two-way ANOVA with Bonferroni’s post-hoc test. See also Fig. S1.
# Primary neonatal human epidermal keratinocytes (NHEKs) was purchased from ThermoFisher Scientific. NHEKs were grown in serum free EpiLife medium supplemented with 0.06 mM CaCl2, EpiLife Defined growth supplements (EDGS) (ThermoFisher Scientific) and antibiotics, and passage 3–5 cells were used for experiment. Cells at 60–80% confluence were starved overnight without EDGS prior to treatment. THP1 was purchased from American Type Culture Collection (ATCC) (Manassas, VA). THP1 was cultured in RPMI-1640 (Sigma) supplemented with 10% Hyclone fetal calf serum (Thermofisher Scientific), and antibiotics, and passage 3–5 cells were used for experiment. Cells at 60–80% confluence were differentiated by Phorbol 12-myristate 13-acetate (PMA, Sigma) for 24 hours and then starved overnight without Hyclone fetal calf serum prior to treatment.
# RNA was isolated from NHEKs using Purelink RNA isolation columns (ThermoFisher Scientific) according to the manufacturer’s instructions. RNA was quantified using a Nanodrop spectrophotometer (ThermoFisher Scientific), and up to 500 ng of RNA was reverse-transcribed using the iScript cDNA synthesis kit (Bio-Rad, Irvine, CA). Quantitative real-time PCR reactions were run on a CFX96 real-time detection system (Bio-Rad) using gene-specific primers and TaqMan probes (ThermoFisher Scientific). PCR primers and probes are shown on Table S2.
U1 RNA localization with SR-B1 [1],Substance,capacity to enable U1 RNA to amplify IFN-β1 or IL-6 expression [2]
enabled U1 RNA to localize with SR-B1,LL37,large responses
enabled U1 RNA to localize with SR-B1,LLGDFFRKSKEKIGKEFKRIVQRIKDFLRNLVPR [LL34],large responses

# From PMC5838106, “Cathelicidin promotes inflammation by enabling binding of self-RNA to cell surface scavenger receptors” (Scientific Reports, 2018)
